In article PMC11438102, “Modulation of cannabinoid receptor 2 alters neuroinflammation and reduces formation of alpha-synuclein aggregates in a rat model of nigral synucleinopathy” (Journal of Neuroinflammation, 2024):
Entries after “also recorded” stand apart in the source; their conditions may differ.

Columns and labels:
[1] = format: in vivo; settings: 6 mg/kg i.p. daily, ~2 h post-dose
Procedure: One week after surgery, animals were randomly selected to receive daily systemic injections of either SMM-189 (intraperitoneal (i.p.), 6 mg/kg, n = 12) or vehicle (i.p., n = 12) and followed for 8 weeks (Figs. 1; n = 2 rats per group were removed due to poor nigral targeting). […] Plasma was also collected at baseline, 4 and 8 weeks post-AAV-hAsyn injections and CSF collected prior to perfusion to measure levels of SMM-189.
Blood was collected from the tail vein at baseline and every 4 weeks post-AAV (~ 2 h post-treatment injection) for plasma to measure SMM-189 levels in low and high cohorts and for PBMCs to immunophenotype circulating immune cells in the high cohort animals. […] Tails were cleaned with ethanol and approximately 400μL of blood drawn from the lateral tail vein using a low dead space 25ga needle and syringe and blood immediately placed into an EDTA tube.
CSF was collected at endpoint from low cohort animals. […] A sterile pulled micropipettes attached to tubing and a syringe punctured into the cisterna magna and clean CSF was aspirated and collected in a 0.2mL Eppendorf and stored at -80°C.
A total of 50 µL aliquots of plasma or CSF were prepared by protein precipitation with 100 µL acetonitrile (spiked with the internal standard d^5-SMM-189) followed by centrifugation at 10,000g for 10 min at 4°C. Chromatographic separation of the supernatant was performed using a Zorbax SB-C18 3.5 μm 4.6 × 150 mm and a Shimadzu HPLC Nexera XR with Solvent Delivery Module LC-20ADXR, CTO-20AC prominence column oven (temperature 40 °C), a DGU-20A5R Degassing Unit, and a SIL-20ACXR autosampler. The aqueous mobile phase (A) was 95% water and 5% acetonitrile (B) was 100% acetonitrile.

[2] = Blood brain barrier penetration / pharmacokinetics of SMM-189 in mice; format: in vivo; settings: 6 mg/kg
Procedure: Analysis of the brain-to-blood ratios of SMM-189 were performed by Sai Life Sciences Limited (Telangana, India). All procedures of the study were in accordance with the guidelines provided by the Committee for the Purpose of Control and Supervision of Experiments on Animals (CPCSEA) as published in The Gazette of India, December 15, 1998. Prior approval of the Institutional Animal Ethics Committee (IAEC) was obtained before initiation of the study. In brief, 54 mice were weighed and divided as Group 1 (6 mg/kg, i.p.) and Group 2 (6 mg/kg, by oral (p.o.)). Animals in Group 1 and Group 2 were administered intraperitoneally and orally with SMM-189 solution formulation at 6 mg/kg in 5% Ethanol, 5% Cremophor and 90% Normal Saline, respectively. The blood samples were collected under light isoflurane anesthesia at 0.08, 0.25, 0.5, 1, 2, 4, 8, 12 and 24 h (i.p.) and 0.25, 0.5, 1, 2, 4, 6, 8, 12 and 24 h (p.o.) in labeled micro centrifuge tube containing K2EDTA as anticoagulant. After blood collection, plasma was harvested by centrifugation and stored at -70 °C until analysis. Immediately after collection of blood, brain samples were collected from set of three mice at each time point at 0.08, 0.25, 0.5, 1, 2, 4, 8, 12 and 24 h (Group 1; i.p.) and 0.25, 0.5, 1, 2, 4, 6, 8, 12 and 24 h (Group 2; p.o.). Brain samples were homogenized using ice-cold phosphate buffer saline (pH-7.4) in a ratio of 2 (buffer):1(brain); and homogenates were stored below − 70 ± 10 °C until analysis. Total homogenate volume was three times the brain weight. All samples were processed for analysis by protein precipitation using acetonitrile and analyzed with fit-for-purpose LC-MS/MS method (LLOQ = 1.02 ng/mL for plasma and 6.09 ng/g for brain).
Non-compartmental-analysis module in Phoenix WinNonlin® (Version 6.3) was used to assess the pharmacokinetic parameters. Maximum concentration (Cmax) and time to reach the maximum concentration (Tmax) were the observed values. The areas under the concentration time curve (AUClast and AUCinf) were calculated by linear trapezoidal rule. The terminal elimination rate constant, ke was determined by regression analysis of the linear terminal portion of the log plasma concentration-time curve. The terminal half-life (T1/2) was estimated as 0.693/ke.

RAW264.7 macrophages = assay: Phagocytosis assay with pHrodo green E. coli bioparticles; format: cell-based; settings: vs vehicle; for integrated density of GFP (phagocytosis of E. coli bioparticles): 100ng/mL LPS; for phagocytosis of E. coli bioparticles: 1 μg/mL LPS
Procedure: The RAW264.7 macrophage cells (ATCC Cat# TIB-71, RRID: CVCL_0493) were grown in sterile media which consisted of DMEM high glucose, 10% FBS, 2mM L-glutamine, 1x Pen-strep and 1x sodium pyruvate in a humidified 5% CO2 incubator at 37°C. RAW264.7 were maintained in […] tissue culture flasks and plated at a density of 1 × 10^4 cells in triplicate in 96-well plates for assays. Cells were stimulated with either lipopolysaccharide (LPS O111:B4; Sigma Cat#L2630) at 100ng/mL or 1000ng/mL (750EU/mL or 7500 EU/mL, respectively). One hour prior to this stimulation the cells were pre-treated with the CB2 inverse agonist SMM-189 at 3μM or 7 μm or its vehicle. Specifically for cell culture experiments, SMM-189 was formulated with 40% ethanol (v/v), 20% tween-20 (v/v) and 40% saline (v/v). A phagocytosis assay was conducted 24 h after LPS.
The phagocytosis assay was performed using pHrodo green E. coli bioparticles (Invitrogen Cat# P35366) according to the manufacturer’s instructions. Five images per well were then collected every 30 min for 24 h on an EVOS M7000 microscope (Invitrogen, ThermoFisher Scientific). The cells were maintained for this duration using an on-stage incubator kept at 37°C and 5% CO2. Analysis of the collected images was performed using EVOS Celleste software (version 5.0), which counted the cells and then measured the integrated optical density of fluorescence within each well over the 24-hour time course. Analysis was conducted on the average integrated optical density across triplicate wells. Results were consistent across duplicate experimental replicates.

[3] = tested on: deep cervical lymph nodes (DCLN) and splenocytes; assay: Flow cytometry of deep cervical lymph nodes and splenocytes (high cohort); format: in vivo, rat; settings: 8-week endpoint
CB2 = tested on: CB2; parameters: method as in PMID 27766068; settings: microglia; cited from earlier work

Compound: O=C(c1ccccc1)c1cc(O)c(-c2cc(Cl)cc(Cl)c2)c(O)c1 [SMM-189]
- SMM-189 plasma levels compared to vehicle ([1]; rat high cohort, 4 and 8 weeks): increased
- level of plasma SMM-189 compared to vehicle-treated rats ([1]; rat low cohort, 4 and 8 weeks): Significant increases
- Levels of SMM-189 in the CSF, average ± SEM ([1]; rat low cohort, endpoint): 0.44 ± 0.22 ng/mL
- Cmax ([2]; brain, i.p.): 204.64 ng/mL
- Tmax ([2]; brain, i.p.): 30 min
- Cmax ([2]; brain, p.o.): 70.34 ng/mL
- Tmax ([2]; brain, p.o.): 15 min
- Brain/plasma ratio (Cmax) ([2]; i.p.): 0.74
- Brain/plasma ratio (Cmax) ([2]; p.o.): 1.63
- Cmax ([2]; plasma, i.p.): 277.07 ng/mL
- Tmax ([2]; plasma, i.p.): 30 min
- Cmax ([2]; plasma, p.o.): 43.15 ng/mL
- Tmax ([2]; plasma, p.o.): 15 min
- integrated density of GFP (phagocytosis of E. coli bioparticles) (RAW264.7 macrophages; pre-treatment 3 μm, p = 0.0024): significantly increased
- integrated density of GFP (phagocytosis of E. coli bioparticles) (RAW264.7 macrophages; pre-treatment 7 μm, p < 0.0001): significantly increased
- phagocytosis of E. coli bioparticles (RAW264.7 macrophages; 3 μm): intensified
- phagocytosis of E. coli bioparticles (RAW264.7 macrophages; 7 μm): intensified
- DCLN myeloid populations including classical CD43-His48+ or CD11b+ monocytes [3]: No frequency difference
- Tregs (foxp3+CD4+) in DCLN [3]: significant reduction
- CD4 to CD8 lymphocyte ratio in DCLN ([3]; p = 0.0503): trend was found in the CD4 to CD8 lymphocyte ratio to be decreased
- CD11b+ myeloid splenocytes ([3]; p = 0.0541): trend to increase
- CD4 to CD8 lymphocyte ratio in spleen ([3]; p = 0.0962): no effect; also recorded: trend was found in the CD4 to CD8 lymphocyte ratio to be decreased
- levels of nuclear phosphorylated cAMP response-element binding protein (pCREB) (CB2): increased
